{"source": "patent US20030086869A1", "about": "“Methods and kits for diagnosing a pancreatic-based fat malabsorption disorder” (priority 2001, published 2003)", "format_in_all_cases": "in vivo, human", "key": {"[1]": {"experiment": "MBT absorption of PA and HA prior to Orlistat in fifteen healthy subjects", "conditions": "PA 2.5 grams and THA 8.0 grams, FIG. 10, 11", "from_the_text": "Fifteen healthy adult subject volunteers (9 women) 18 to 50 years of age were recruited through local advertisements. Exclusion criteria included: any chronic illness known to affect nutrient absorption, body mass index (BMI) of less than 21 or greater than 30 kg/m^2 (i.e., outside of generally accepted healthy adult ranges), therapy with lipid lowering drugs, diabetes mellitus (NIDDM, IDDM) and disorders associated with altered energy metabolism (e.g., hypothyroidism). This adult age range was selected because Orlistat is FDA approved in adults. In addition, adults are able to plan the experimental days for cooperation with four days of the research study diet, outpatient 72-hour stool collection and phlebotomy requirements. […]\nSubjects underwent a 12-hour fast from 2100 hours on day #1 of the study. […] Upon arrival at the study center on the morning of day #2, subjects had their weight and height measured, and an experienced phlebotomist inserted a self-retaining intravenous catheter with a heparin lock for serial blood sampling. […] The number and timing of blood samples was determined by the experiments in Example 1, and was expected to be six or fewer samples over an eight-hour or less time period. […]"}, "[2]": {"experiment": "Malabsorption Blood Test (MBT): serum levels of PA and HA after oral PA and THA test breakfast meal in healthy control subjects", "experimental": "(§1) Both whole post-absorptive serum and isolated chylomicron fractions of the serum are analyzed for fatty acid composition. Chylomicrons are isolated from plasma by centrifugation at d=1.006 g/ml for 30 minutes at 26,000 g (Hatch, F. T., et al., 1968; Adv. Lipid Res., 6:1-68). Total lipids are extracted from each specimen following the method of Bligh and Dyer (Bligh, E. G., et al., 1959; Can. J. Biochem., 37:911-917). Following transmethylation of the lipid extracts using BF3-methanol, fatty acid composition is determined using gas-liquid chromatographic (GLC) analysis using a Hewlett Packard GLC equipped with a flame ionization detector, an automatic 7673 sampler and […]×0.25 mm ID column composed of a 0.20 micron film of SP-2560 (Supelco, Bellefonte, Pa.) (Morrison, W., et al., 1964; J. Lipid Res. 5:600-608). The temperature is programmed to change from 140° C. to 240° C. at a rate of 4° C./minute. At the time of extraction, heptadecanoic methyl ester is added as an internal standard.\nHealthy control subjects between 18 and 50 years of age were selected. Exclusion criteria included: any chronic illness known to affect nutrient absorption, body mass index (BMI) <21 or >30 kg/m^2 (generally accepted healthy adult ranges), therapy with lipid lowering drugs, diabetes mellitus (NIDDM and IDDM), disorders associated with altered energy metabolism (e.g., hypothyroidism) and disinterest in participating in all three dosing experiments. This adult age range was selected for several reasons: (a) adult subjects are likely to remain committed to all three components of the study; (b) adults will understand the need to provide reliable feedback on taste and tolerance of the test breakfast meal and the entire malabsorption test procedure; and (c) adult subjects are able to plan the experimental day for full cooperation with the multiple phlebotomy events from 0700 to 1500 hours.\nUpon arrival at the study center, subjects had their weight and height measured and an experienced phlebotomist inserted a self-retaining intravenous catheter with a heparin lock for serial blood sampling. After initially drawing 2 milliliters of blood into a sterile syringe, the experimental blood sample (2 milliliters) was drawn and immediately stored in a 4-milliliter serum separator tube. Thereafter, the initial 2 milliliters of blood was infused back into the catheter followed by 2 milliliters of heparin flush. After the baseline blood samples were obtained, the subjects drank an approximately 8 to 12 ounce liquid test breakfast meal. This meal contained one to three doses of PA and THA in a random distribution. Subjects were asked to consume the test breakfast meal within five minutes. Thereafter, serial blood samples were obtained at regular intervals over a period ranging from 30 minutes to 24 hours. During the initial eight-hour period, subjects were permitted to ingest non-caloric and non-caffeinated beverages. A study protocol lunch of known fat content was provided and actual food intake was recorded. Ambulation was limited to maintain adherence to the 30 to 60 minute intervals in the blood sampling schedule. After completion of the blood sampling, the catheter was removed, a snack was offered, and the subjects were encouraged to consume a full meal. The lipid doses (mg/kg) of PA and THA used in this experiment were based on doses 10-fold higher than similar fats used to correct essential fatty acid deficiency in cystic fibrosis, and previous studies which used ^13C […] to qualitatively assess fat malabsorption in pancreatic disease (Rosenlund, M. L., et al., 1977;Pediatrics, 59:428-32; Wutzke, K. D., et al., 1999; J. Pediatr. Gastroenterol. Nutr., 29:148-54).\nFour healthy control subjects were administered a dose of 30 mg/kg PA and 30 mg/kg THA in the digestible composition (a liquid breakfast shake) after a 12-hour fast. Blood was drawn at baseline before consumption of the shake and then every 30 minutes thereafter until hour 6. […]"}, "[3]": {"experiment": "MBT serum levels of PA and HA in subjects with CF and pancreatic insufficiency on and off pancreatic enzymes", "experimental": "as §1\nSubjects with CF and pancreatic insufficiency currently treated with pancreatic enzymes, aged greater than 8 years were recruited. Exclusion criteria included: forced expiratory volume of the lungs at 1 second (FEV1) <40%, a history of fibrosing colonopathy or significant bowel resection (>10 cm), mental retardation, significant neurological deficit, developmental disability and autism. Subjects are in their usual state of good health. This age range was selected because it includes children during active growth where information regarding degree of malabsorption leads to improved nutritional intervention and pancreatic enzyme therapy. Also, children greater than 8 years of age are mature enough to provide assent and feedback concerning acceptability and tolerance of the MBT.\nIn the experiments shown in FIGS. 12 through 15, three subjects with CF were given either 30 mg/kg PA and 60 mg/kg THA (2 subjects) or 30 mg/kg PA and 90 mg/kg THA (1 subject) in a digestible composition consisting of a liquid breakfast shake after a 12 hour fast. The subjects were tested while they were taking their usual doses of pancreatic enzymes and then were tested again (more than one week later) when they were not taking pancreatic enzymes. Blood was sampled at baseline and then at hourly intervals from 2 to 8 hours and then sampled again at 24 hours. Subjects were fed a prepared lunchtime meal with a known quantity of fat (80 grams). The individual results for fat absorption for the 3 subjects with CF on enzymes are presented in FIG. 12 for PA and FIG. 13 for HA. For the same 3 subjects with CF off enzymes, the results for fat absorption are presented in FIG. 14 for PA and FIG. 15 for HA.\nAdditional experiments were performed on six subjects with CF either on or off pancreatic enzyme treatment. The serum levels of PA and HA in these six subjects on and off pancreatic enzyme treatment are presented in FIG. 16 anf FIG. 17, respectively."}, "[4]": {"conditions": "four healthy control subjects, 30 mg/kg PA and 60 mg/kg THA, FIG. 3A, 4, 5A"}, "[5]": {"conditions": "four healthy control subjects, 30 mg/kg PA and 90 mg/kg THA, FIG. 6-8"}}}
{"compound": "CCCCCCCCCCCCCCC(=O)O", "note": "[PA, pentadecanoic acid]", "values": [{"measurement": "average absorption", "setting": "[1]", "value": "approximately 65%"}, {"measurement": "delay before rise in serum concentration", "setting": "[2]; four healthy control subjects, 30 mg/kg PA and 30 mg/kg THA, liquid breakfast shake after 12-hour fast, FIG. 2", "value": "approximately half"}, {"measurement": "time at which increase in serum level is evident / begins", "setting": "[2]; [4]", "value": "≤ 2", "unit": "h"}, {"measurement": "time of peak serum level", "setting": "[2]; [4]", "value": 6, "unit": "h"}, {"measurement": "time at which increase in serum level is evident", "setting": "[2]; [5]", "value": "≤ 2", "unit": "h"}, {"measurement": "time of peak serum level", "setting": "[2]; [5]", "value": 6, "unit": "h"}, {"measurement": "peak serum level", "setting": "[2]; four healthy control subjects, 30 mg/kg PA and either 60 or 90 mg/kg THA oral at baseline, FIG. 1 model", "value": "approximately 4 mg/dL"}, {"measurement": "time of peak serum level", "setting": "[2]; four healthy control subjects, 30 mg/kg PA and either 60 or 90 mg/kg THA oral, FIG. 1 model", "value": "six"}, {"measurement": "concentration at 8 h", "setting": "[2]; human, serum, four healthy control subjects, 30 mg/kg PA and either 60 or 90 mg/kg THA oral, FIG. 1 model, read-out: serum level by eight hours post dose", "value": "~10000", "unit": "ng/mL"}, {"measurement": "pattern of serum response", "setting": "[2]; six healthy volunteers, PA 2.5 grams and THA 5.0 or 8.0 grams, FIG. 3B", "value": "increasing over the first two hours and remaining elevated through hour six"}, {"measurement": "hour by which serum levels increased", "setting": "[3]; subjects with CF off pancreatic enzymes", "value": "≤ 2", "unit": "h"}, {"measurement": "hour by which increase in absorption was evident", "setting": "[3]; subjects with CF on pancreatic enzymes", "value": "≤ 2", "unit": "h"}, {"measurement": "serum levels compared with healthy control subjects", "setting": "[3]; subjects with CF taking pancreatic enzymes", "value": "lower"}]}
